# Experimental data taken from the supplement of paper PMC10307832.
# Tests used:
# Assay in all cases: relative viability (nuclei count vs DMSO), 5 days (fraction); higher = more cells survive
# 201T = test system: 201T
# Procedure, shortened: (§1)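 Relative viability is defined as nuclei in treated wells over nuclei in vehicle wells. Duplicate plates were run and medians reported. Lung cancer cell lines in 1536-well plates were dosed by pin tool one day after seeding, with one drug or with a fixed anchor-drug dose plus five library-drug doses (not always all listed) in √10 steps, and nuclei were counted after 5 days.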
# A-427 = test system: A-427
# Procedure, shortened: as §1
# BEN = test system: BEN
# Procedure, shortened: as §1
# COR-L23 = test system: COR-L23
# Procedure, shortened: as §1
# EKVX = test system: EKVX
# Procedure, shortened: as §1
# HARA = test system: HARA
# Procedure, shortened: as §1
# HCC-15 = test system: HCC-15
# Procedure, shortened: as §1
# HCC-44 = test system: HCC-44
# Procedure, shortened: as §1
# HCC-827 = test system: HCC-827
# Procedure, shortened: as §1
# NCI-H1437 = test system: NCI-H1437
# Procedure, shortened: as §1
# NCI-H1650 = test system: NCI-H1650
# Procedure, shortened: as §1
# NCI-H1666 = test system: NCI-H1666
# Procedure, shortened: as §1
# NCI-H1792 = test system: NCI-H1792
# Procedure, shortened: as §1
# NCI-H1975 = test system: NCI-H1975
# Procedure, shortened: as §1
# NCI-H2342 = test system: NCI-H2342
# Procedure, shortened: as §1
# NCI-H23 = test system: NCI-H23
# Procedure, shortened: as §1
# NCI-H358 = test system: NCI-H358
# Procedure, shortened: as §1
# NCI-H441 = test system: NCI-H441
# Procedure, shortened: as §1
# NCI-H596 = test system: NCI-H596
# Procedure, shortened: as §1
# NCI-H650 = test system: NCI-H650
# Procedure, shortened: as §1
# NCI-H838 = test system: NCI-H838
# Procedure, shortened: as §1
# SK-MES-1 = test system: SK-MES-1
# Procedure, shortened: as §1
# SW 900 = test system: SW 900
# Procedure, shortened: as §1
compound,measurement,setting,value
O=c1cc(N2CCOCC2)oc2c(-c3cccc4c3sc3ccccc34)cccc12 + Nc1nc2[nH]cc(CCc3ccc(C(=O)N[C@@H](CCC(=O)O)C(=O)O)cc3)c2c(=O)[nH]1 [Pemetrexed] (partner 0.2 µM),relative viability,201T; first compound 0.01 µM,0.326
same,relative viability,201T; first compound 0.03162 µM,0.316
same,relative viability,201T; first compound 0.1 µM,0.338
same,relative viability,201T; first compound 0.3162 µM,0.397
same,relative viability,201T; first compound 1 µM,0.359
same,relative viability,A-427; first compound 0.01 µM,0.944
same,relative viability,A-427; first compound 0.03162 µM,1.01
same,relative viability,A-427; first compound 0.1 µM,0.954
same,relative viability,A-427; first compound 0.3162 µM,0.993
same,relative viability,A-427; first compound 1 µM,0.945
same,relative viability,BEN; first compound 0.01 µM,0.79
same,relative viability,BEN; first compound 0.03162 µM,0.746
same,relative viability,BEN; first compound 0.1 µM,0.653
same,relative viability,BEN; first compound 0.3162 µM,0.89
same,relative viability,BEN; first compound 1 µM,0.705
same,relative viability,COR-L23; first compound 0.01 µM,0.189
same,relative viability,COR-L23; first compound 0.03162 µM,0.204
same,relative viability,COR-L23; first compound 0.1 µM,0.203
same,relative viability,COR-L23; first compound 0.3162 µM,0.201
same,relative viability,COR-L23; first compound 1 µM,0.204
same,relative viability,EKVX; first compound 0.01 µM,0.41
same,relative viability,EKVX; first compound 0.03162 µM,0.384
same,relative viability,EKVX; first compound 0.1 µM,0.419
same,relative viability,EKVX; first compound 0.3162 µM,0.365
same,relative viability,EKVX; first compound 1 µM,0.362
same,relative viability,HARA; first compound 0.01 µM,0.217
same,relative viability,HARA; first compound 0.03162 µM,0.271
same,relative viability,HARA; first compound 0.1 µM,0.225
same,relative viability,HARA; first compound 0.3162 µM,0.238
same,relative viability,HARA; first compound 1 µM,0.262
same,relative viability,HCC-15; first compound 0.01 µM,0.214
same,relative viability,HCC-15; first compound 0.03162 µM,0.221
same,relative viability,HCC-15; first compound 0.1 µM,0.225
same,relative viability,HCC-15; first compound 0.3162 µM,0.205
same,relative viability,HCC-15; first compound 1 µM,0.195
same,relative viability,HCC-44; first compound 0.01 µM,0.667
same,relative viability,HCC-44; first compound 0.03162 µM,0.643
same,relative viability,HCC-44; first compound 0.1 µM,0.587
same,relative viability,HCC-44; first compound 0.3162 µM,0.591
same,relative viability,HCC-44; first compound 1 µM,0.664
same,relative viability,HCC-827; first compound 0.01 µM,0.264
same,relative viability,HCC-827; first compound 0.03162 µM,0.254
same,relative viability,HCC-827; first compound 0.1 µM,0.295
same,relative viability,HCC-827; first compound 0.3162 µM,0.271
same,relative viability,HCC-827; first compound 1 µM,0.3
same,relative viability,NCI-H1437; first compound 0.01 µM,0.327
same,relative viability,NCI-H1437; first compound 0.03162 µM,0.292
same,relative viability,NCI-H1437; first compound 0.1 µM,0.313
same,relative viability,NCI-H1437; first compound 0.3162 µM,0.314
same,relative viability,NCI-H1437; first compound 1 µM,0.314
same,relative viability,NCI-H1650; first compound 0.01 µM,0.397
same,relative viability,NCI-H1650; first compound 0.03162 µM,0.374
same,relative viability,NCI-H1650; first compound 0.1 µM,0.35
same,relative viability,NCI-H1650; first compound 0.3162 µM,0.341
same,relative viability,NCI-H1650; first compound 1 µM,0.34
same,relative viability,NCI-H1666; first compound 0.01 µM,0.944
same,relative viability,NCI-H1666; first compound 0.03162 µM,0.912
same,relative viability,NCI-H1666; first compound 0.1 µM,0.896
same,relative viability,NCI-H1666; first compound 0.3162 µM,0.779
same,relative viability,NCI-H1666; first compound 1 µM,0.82
same,relative viability,NCI-H1792; first compound 0.01 µM,0.835
same,relative viability,NCI-H1792; first compound 0.03162 µM,0.901
same,relative viability,NCI-H1792; first compound 0.3162 µM,0.836
same,relative viability,NCI-H1792; first compound 1 µM,0.759
same,relative viability,NCI-H1975; first compound 0.01 µM,0.309
same,relative viability,NCI-H1975; first compound 0.03162 µM,0.27
same,relative viability,NCI-H1975; first compound 0.1 µM,0.294
same,relative viability,NCI-H1975; first compound 0.3162 µM,0.267
same,relative viability,NCI-H1975; first compound 1 µM,0.309
same,relative viability,NCI-H2342; first compound 0.01 µM,0.795
same,relative viability,NCI-H2342; first compound 0.03162 µM,0.753
same,relative viability,NCI-H2342; first compound 0.1 µM,0.772
same,relative viability,NCI-H2342; first compound 0.3162 µM,0.755
same,relative viability,NCI-H2342; first compound 1 µM,0.784
same,relative viability,NCI-H23; first compound 0.01 µM,0.732
same,relative viability,NCI-H23; first compound 0.03162 µM,0.761
same,relative viability,NCI-H23; first compound 0.3162 µM,0.659
same,relative viability,NCI-H23; first compound 1 µM,0.609
same,relative viability,NCI-H358; first compound 0.01 µM,0.166
same,relative viability,NCI-H358; first compound 0.03162 µM,0.179
same,relative viability,NCI-H358; first compound 0.1 µM,0.181
same,relative viability,NCI-H358; first compound 0.3162 µM,0.18
same,relative viability,NCI-H358; first compound 1 µM,0.173
same,relative viability,NCI-H441; first compound 0.01 µM,0.256
same,relative viability,NCI-H441; first compound 0.03162 µM,0.272
same,relative viability,NCI-H441; first compound 0.1 µM,0.299
same,relative viability,NCI-H441; first compound 0.3162 µM,0.276
same,relative viability,NCI-H441; first compound 1 µM,0.235
same,relative viability,NCI-H596; first compound 0.01 µM,0.452
same,relative viability,NCI-H596; first compound 0.03162 µM,0.521
same,relative viability,NCI-H596; first compound 0.1 µM,0.528
same,relative viability,NCI-H596; first compound 0.3162 µM,0.517
same,relative viability,NCI-H596; first compound 1 µM,0.482
same,relative viability,NCI-H650; first compound 0.01 µM,0.764
same,relative viability,NCI-H650; first compound 0.03162 µM,1.08
same,relative viability,NCI-H650; first compound 0.3162 µM,0.85
same,relative viability,NCI-H650; first compound 1 µM,0.786
same,relative viability,NCI-H838; first compound 0.01 µM,0.255
same,relative viability,NCI-H838; first compound 0.03162 µM,0.237
same,relative viability,NCI-H838; first compound 0.1 µM,0.241
same,relative viability,NCI-H838; first compound 0.3162 µM,0.227
same,relative viability,NCI-H838; first compound 1 µM,0.26
same,relative viability,SK-MES-1; first compound 0.01 µM,0.868
same,relative viability,SK-MES-1; first compound 0.03162 µM,0.943
same,relative viability,SK-MES-1; first compound 0.1 µM,0.906
same,relative viability,SK-MES-1; first compound 0.3162 µM,0.821
same,relative viability,SK-MES-1; first compound 1 µM,0.91
same,relative viability,SW 900; first compound 0.03162 µM,0.452
same,relative viability,SW 900; first compound 0.1 µM,0.425
same,relative viability,SW 900; first compound 0.3162 µM,0.51
same,relative viability,SW 900; first compound 1 µM,0.507
